This is an account of results in ChEMBL document CHEMBL4613209, “Quinolone hybrids and their anti-cancer activities: An overview” (Eur J Med Chem, 2019).

One test deals with PC-3. In words: Antiproliferative activity against human PC3 cells by CCK8 assay. The format is functional, cell-based. On the technique in general: Tetrazolium dyes change colour on reduction, which living cells bring about.
Test [1] concerns A549. Kind of test: Antiproliferative activity against human A549 cells by CCK8 assay. Format: functional, cell-based.
The test system of test [2] is MCF7. Kind of test: Antiproliferative activity against human MCF7 cells by CCK8 assay. Format: functional, cell-based.
Test [3] has as its system HepG2. In words: Antiproliferative activity against human HepG2 cells by CCK8 assay. The format is functional, cell-based.
A further test deals with Tubulin. Kind of test: Inhibition of tubulin polymerization (unknown origin). The format is protein-complex assay, Homo sapiens.
For the next test, the system named is MCF-10A. In words: Antiproliferative activity against human MCF10A cells by CCK8 assay. Format: cell-based.
For another test, the target named is Histone deacetylase. Kind of test: Inhibition of HDAC (unknown origin). The format is protein assay, Homo sapiens.
The next test concerns HeLa. In words: Antiproliferative activity against human HeLa cells by CCK8 assay. Format: functional, cell-based.
Test [4] concerns HT-29. Kind of test: Anticancer activity against human HT-29 cells by MTT assay. The format is functional, cell-based.
In another test the test system is HL-60. Kind of test: Anticancer activity against human HL60 cells by MTT assay. Format: functional, cell-based.
Test [5] has as its system HepG2. In words: Anticancer activity against human HepG2 cells by MTT assay. The format is functional, cell-based.
The subject of a further test is NCI-H460. Kind of test: Growth inhibition of human NCI-H460 cells. Format: functional. The following applies: pooled result: one value given for 3 cell lines, strains, targets or settings.
The test system of test [6] is HT-29. Kind of test: Cytotoxicity against human HT-29 cells assessed as reduction in cell viability. Format: functional, cell-based.
Test [7] has as its system B16-F10. In words: Cytotoxicity against mouse B16F10 cells assessed as reduction in cell viability. Format: functional, cell-based.
In test [8] the test system is P388. Kind of test: Cytotoxicity against doxorubicin resistant mouse P388 cells assessed as reduction in cell viability. The format is functional, cell-based.
The subject of test [9] is P388. In words: Anticancer activity against mouse P388 cells. The format is functional, cell-based.
Test [10] has as its system A549. In words: Anticancer activity against human A549 cells. The format is functional, cell-based.
The test system of another test is HCT-8. Kind of test: Anticancer activity against human HCT8 cells. The format is functional, cell-based.
The subject of test [11] is Lewis lung carcinoma cell line. In words: Anticancer activity against mouse LLC cells. The format is functional, cell-based.
Test [12] concerns MCF7. Kind of test: Anticancer activity against human MCF7 cells. Format: functional, cell-based.
The subject of test [13] is P388. In words: Cytotoxicity against mouse P388 cells assessed as reduction in cell viability. Format: functional, cell-based.
In test [14] the test system is P388. In words: Anticancer activity against doxorubicin resistant mouse P388 cells. The format is functional, cell-based.
The test system of test [15] is B16-F10. In words: Anticancer activity against mouse B16F10 cells. Format: functional, cell-based.
Test [16] relates to A549. In words: Cytotoxicity against human A549 cells assessed as reduction in cell viability. The format is functional, cell-based.
For test [17], the system named is HT-29. In words: Anticancer activity against human HT-29 cells. Format: functional, cell-based.
In a further test the test system is MDA-MB-231. In words: Growth inhibition of human MDA-MB-231 cells after 48 hrs by SRB assay. The following applies: MDA-MB-231, 48 h. Format: functional. In general terms: Sulforhodamine B stains cellular protein and so reports cell mass.
The test system of the next test is SiHa. Kind of test: Growth inhibition of human SiHa cells after 48 hrs by SRB assay. The format is functional.

≈ marks a conversion by molar mass, not a printed value.

As a reminder, the IC50 is the concentration needed to halve the response being measured. Consider `C[C@H]1COc2c(N3CCN(C)CC3)c(F)cc3c(=O)c(C(=O)NCc4cn(CCCCCCCC(=O)NO)nn4)cn1c23`, for which the IC50 in the test with PC-3 is 300 to 12800 nM; in the test on A549 [1], 300 to 12800 nM; in the test on MCF7 [2], 300 to 12800 nM; in the test with HepG2 [3] it was 300 to 12800 nM; against Tubulin, 1790 to 6360 nM; in the test with MCF-10A, more than 100000 nM. In addition, the IC50 was in the range of 21 to 850 nM on Histone deacetylase and 300 to 12800 nM with HeLa.
Turning to `CCOC(=O)c1cn(Cc2cn(-c3ccc(C)cc3)nn2)c2ccc(F)cc2c1=O`, the IC50 in the test on HT-29 [4], with HL-60 and with HepG2 [5] was 13100 to 88400 nM throughout.
As a reminder, the GI50 is the concentration at which growth is held to half of that of the control. In the test on NCI-H460, `COc1ccc2[nH]c(=O)c3c4ccccc4oc3c2c1` registered a GI50 of 10700 to 53700 nM.
On to `C[C@H]1COc2c(N3CCN(C)CC3)c(F)cc3c(=O)c(C(=O)NCc4cn(CCCCCCC(=O)NO)nn4)cn1c23`, for which the IC50 in the test on PC-3 is 300 to 4900 nM; in the test with A549 [1], 300 to 4900 nM; in the test on MCF7 [2] it was 300 to 4900 nM; in the test with HepG2 [3], 300 to 4900 nM; against Tubulin, 1790 to 6360 nM; in the test on MCF-10A it was more than 100000 nM. The IC50 fell in the range of 21 to 850 nM against Histone deacetylase and 300 to 4900 nM with HeLa.
As to `C[C@H]1COc2c(N3CCN(C)CC3)c(F)cc3c(=O)c(C(=O)OCc4cn(CCCCCCCC(=O)NO)nn4)cn1c23`, the IC50 in the test on PC-3 is 300 to 12800 nM; with A549 [1] it was 300 to 12800 nM; in the test on MCF7 [2] it was 300 to 12800 nM; in the test with HepG2 [3], 300 to 12800 nM; against Tubulin it was 1790 to 6360 nM; in the test with MCF-10A it was more than 100000 nM. Moreover, the figures for the IC50 on Histone deacetylase and in the test with HeLa were 21 to 850 nM and 300 to 12800 nM, respectively.
The molecule `O=c1[nH]c2ccc(F)cc2c2oc3ccccc3c12` yielded a concentration for 50% growth inhibition (GI50) in the test on NCI-H460 of 10700 to 53700 nM.
As to `CC(C)(C)c1cccc(NC2CCN(C3C(F)=Cc4c5n(cc(C(=O)O)c4=O)-c4ccccc4OC53)C2)c1` (centres undefined), the IC50 was in the range of 0.011 to 0.59 µg/mL (≈ 0.0213 to 1.14 µM) in the test with HT-29 [6]; 0.011 to 0.59 µg/mL (≈ 0.0213 to 1.14 µM) with B16-F10 [7]; 0.011 to 0.59 µg/mL (≈ 0.0213 to 1.14 µM) with P388 [8]; 30 to 490 nM in the test on P388 [9]; 30 to 490 nM with A549 [10]; 30 to 490 nM in the test with HCT-8. The IC50 fell in the range of 30 to 490 nM in [11]; 30 to 490 nM with MCF7 [12]; 0.011 to 0.59 µg/mL (≈ 0.0213 to 1.14 µM) with P388 [13]; 30 to 490 nM in the test on P388 [14]; 30 to 490 nM in the test on B16-F10 [15]; 0.011 to 0.59 µg/mL (≈ 0.0213 to 1.14 µM) in the test with A549 [16]. Further, the half-inhibitory concentration (IC50) with HT-29 [17] is 30 to 490 nM.
Regarding `O=C(O)c1cn(C2CC2)c2cc(N3CCN(C(=O)CCSc4nnnn4-c4ccc(Br)cc4)CC3)c(F)cc2c1=O`, the GI50 in the test with MDA-MB-231 and in the test on SiHa was not above 100 nM throughout.
As to `Cc1ccccc1NC1CCN(C2C(F)=Cc3c4n(cc(C(=O)O)c3=O)-c3ccccc3OC42)C1` (centres undefined), the concentration for half-maximal inhibition (IC50) in the test on HT-29 [6] was 0.011 to 0.59 µg/mL (≈ 0.0232 to 1.25 µM); with B16-F10 [7] it was 0.011 to 0.59 µg/mL (≈ 0.0232 to 1.25 µM); in the test on P388 [8], 0.011 to 0.59 µg/mL (≈ 0.0232 to 1.25 µM); in the test on P388 [9] it was 30 to 490 nM; in the test with A549 [10] it was 30 to 490 nM; in the test on HCT-8, 30 to 490 nM. In addition, the IC50 in [11] was in the range of 30 to 490 nM; in the test on MCF7 [12], 30 to 490 nM; with P388 [13], 0.011 to 0.59 µg/mL (≈ 0.0232 to 1.25 µM); in the test on P388 [14], 30 to 490 nM; with B16-F10 [15], 30 to 490 nM; with A549 [16], 0.011 to 0.59 µg/mL (≈ 0.0232 to 1.25 µM). The IC50 in the test with HT-29 [17] is 30 to 490 nM.
In the test with NCI-H460, `O=c1[nH]c2ccc(Cl)cc2c2[nH]c3ccccc3c12` showed a GI50 of 19000 nM.
Turning to `C[C@H]1COc2c(N3CCN(C)CC3)c(F)cc3c(=O)c(C(=O)NCc4cn(CCCCCC(=O)NO)nn4)cn1c23`, the half-maximal inhibitory concentration (IC50) with PC-3 is 300 to 12800 nM; in the test with A549 [1], 300 to 12800 nM; with MCF7 [2], 300 to 12800 nM; with HepG2 [3] it was 300 to 12800 nM; on Tubulin, 1790 to 6360 nM; in the test with MCF-10A, more than 100000 nM. The IC50 against Histone deacetylase fell in the range of 21 to 850 nM; with HeLa it was 300 to 12800 nM.
Consider `CCOC(=O)c1cn(Cc2cn(-c3ccc(C)cc3)nn2)c2ccc(Cl)cc2c1=O`, for which the IC50 in the test with HT-29 [4], in the test on HL-60 and in the test with HepG2 [5] was 13100 to 88400 nM throughout.
As to `O=C(O)c1cn(C2CC2)c2cc(N3CCN(C(=O)CCSc4nnnn4Cc4ccccc4)CC3)c(F)cc2c1=O`, the GI50 in the test on MDA-MB-231 and with SiHa was not above 100 nM throughout.
Take `CCOC(=O)c1cn(Cc2cn(-c3ccc([N+](=O)[O-])cc3)nn2)c2ccc(Cl)cc2c1=O`: the IC50 in the test on HT-29 [4], with HL-60 and in the test on HepG2 [5] was 13100 to 88400 nM in each case.
